Several values for one entry are separate records, joined by “and”; a condition that tells them apart may be missing. Equal values may be shown once.
Legend:
[1] = test system: prothrombin time (PT) in the plasma; experiment: Prothrombin time (PT) in the plasma of chronic hepatitis C patients with or without hemophilia; assay type: in vivo, human; settings: for PT Increase Rate: 12 weeks after start versus before; for PT After Therapy: 12 weeks after start
Procedure: Of these patients, 9 patients were with hemophilia and 27 hepatitis patients were without hemophilia. Pegintron was administered to all the patients once a week with the dosage of 1.5 μg/Kg for 48 weeks, whereas Rebetol was simultaneously administered to the 9 hemophilia patients with the dosage of Administration Example 1 (600 mg to 800 mg per day).
The prothrombin time (PT) in the plasma was measured for the patients before the start of the dosing and 12 weeks after the start of the dosing, for the purpose of evaluation of the coagulation activity.

[2] = test system: coagulation factor VII mRNA in HepG2 cell line; experiment: mRNA expression of coagulation factor VII, real-time quantitative RT-PCR, HepG2 cell line; assay type: cell-based, human; settings: ribavirin 150 μg/ml in the presence of interferon α-2b 0.75 μg/ml, 48 hours, p<0.02
Procedure: (§1) The mRNA expression levels of the coagulation factors VII and X and prothrombin were measured according to the protocols of real-time quantitative RT-PCR with ABI Prism 7700 Sequence Detection (Perkin Elmer Biosystems, Foster City, Calif., USA) and SYBR Green PCR kit (Perkin Elmer Biosystems). The real-time quantitative RT-PCR was repeated twice. The following […] were used for determination of the mRNA of the genes.

[3] = test system: coagulation factor VII mRNA in hepatic parenchymal cell line; experiment: mRNA expression of coagulation factor VII, real-time quantitative RT-PCR, normal hepatic parenchymal cell line; assay type: cell-based; settings: ribavirin 150 μg/ml in the presence of interferon α-2b 0.75 μg/ml, 48 hours, p<0.01
Procedure: as §1

[4] = test system: coagulation factor X mRNA; experiment: mRNA expression of coagulation factor X, real-time quantitative RT-PCR, hepatic cell lines; assay type: cell-based; settings: ribavirin 150 μg/ml in the presence of interferon α-2b 0.75 μg/ml; data not shown
Procedure: as §1

coagulation factor VII = experiment: Coagulation activity of coagulation factor VII in the plasma of hemophilia patients
prothrombin mRNA = experiment: mRNA expression of prothrombin, real-time quantitative RT-PCR, hepatic cell lines; assay type: cell-based; settings: ribavirin 150 μg/ml in the presence of interferon α-2b 0.75 μg/ml; data not shown
Procedure: as §1

HCV = experiment: Eradication of HCV in HCV-positive patients with hemophilia; assay type: in vivo, human
Procedure: (§2) Ribavirin was orally administered, while the interferon was intravenously administered.
(§3) Interferon α-2b alone was administered to the patients Nos. 1, 2, 3, and 5, prior to the combined administration of this Example 1. In the interferon single dosing period, the interferon was administered to the patients Nos. 1, 2, 3, and 5 every day with the dosage of 6 MU (million units) per day for the first 2 weeks and 3 times per week for the subsequent 22 weeks. […] In the combined administration of this Example 1, Intron A was administered to all the patients every day with the dosage of 6 MU per day for the first 2 weeks and 3 times per week for the subsequent 22 weeks.
The HCV-RNA level was measured at the start of treatment with Amplicor HCV Assay, version 2.0 (Roche Diagnostic Systems).
Eradication of HCV was considered positive when the absence of serum HCVRNA was maintained for 24 weeks after the treatment was completed.

[5] = test system: HCV-positive patients with hemophilia; experiment: Bleeding requiring treatment and use of clotting factors in hemophilia patients (patient logs); assay type: in vivo, human
Procedure: as §2, §3
The use of clotting factors was assessed by patient logs. The clotting factors are generally not used for patients with mild hemophilia. The doses (mean value) of the clotting factors before the combined dosing period of this Example 1, during the combined dosing period, and after the combined dosing period were evaluated. A significant difference at P<0.05 was evaluated by (paired) t-test. Ability to perform activities of daily living was assessed by interview.

coagulation factor X = experiment: Coagulation activity of coagulation factor X in the plasma; assay type: in vivo, human; settings: before and after the start of the combined dosing, data not shown
[6] = test system: HCV-positive patients with hemophilia; experiment: Bleeding requiring treatment and use of clotting factors in hemophilia patients (patient logs); assay type: in vivo, human; settings: 47 hemophilia patients with hepatitis C
[7] = 4 weeks after start of combined dosing, 9 patients

## NC(=O)c1ncn([C@@H]2O[C@H](CO)[C@@H](O)[C@H]2O)n1 [ribavirin, 1-β-D-ribofuranosyl-1,2,4-triazole-3-carboxamide]
[1]; Hemophilia Group n = 9
  PT Increase Rate: 9.4 ± 8.4%
[1]; Hemophilia Group n = 9, Rebetol 600-800 mg/day + Pegintron 1.5 μg/Kg once a week, before therapy 90.0 ± 12.2%
  PT After Therapy: 99.4 ± 14.3%
[1]; Non-Hemophilia Group n = 27
  PT Increase Rate: 5.4 ± 12.6%
[1]; Non-Hemophilia Group n = 27, Pegintron 1.5 μg/Kg once a week, combined administration, before therapy 94.9 ± 14.4%
  PT After Therapy: 100.0 ± 16.8%
[2]
  mRNA induction of the coagulation factor VII: about 3 times
[3]
  mRNA induction of the coagulation factor VII: about 4 times
[4]
  mRNA induction of the coagulation factor X: No significant induction
Coagulation factor VII; 2 of the 9 patients (one HIV positive, one hepatitis C and hepatitis B virus positive)
  Factor VII coagulation activity increase in the 2 patients without significant increase: 5% and 8%
Coagulation factor VII; [7]
  Factor VII coagulation activity increase, maximum: 28%
  Factor VII coagulation activity increase, minimum: 5%
Coagulation factor VII; 4 weeks after start versus before start of combined dosing, 9 hemophilia patients, p<0.04
  Factor VII Clotting Activity Increase Rate: 15.7 ± 8.8%
Coagulation factor VII; plasma, 4 weeks after start of combined dosing (ribavirin 600-800 mg/day + interferon α-2b), 9 hemophilia patients, before start 86.3 ± 7.6%
  Factor VII Clotting Activity After Start of Therapy: 102.0 ± 10.3%
Prothrombin mRNA
  mRNA induction of prothrombin: No significant induction
HCV; oral ribavirin 600-800 mg/day combined with interferon α-2b (Intron A) for 24 weeks, YES = absence of serum HCV-RNA maintained 24 weeks after treatment, per patient (Nos. 1-8)
  Eradication of HCV: YES
[5]; 5 patients with moderate or severe hemophilia, ribavirin + interferon α-2b, standard deviation 1488, 3783 U (SD 2646) in the 6 months before, P<0.03
  monthly mean dosage of the clotting factors in the combined dosing period: 1605 U
[5]; 5 patients with moderate or severe hemophilia, standard deviation 1528, 3783 U (SD 2646) in the 6 months before, P<0.06
  monthly mean dosage of the clotting factors in the 6-month period after the combined dosing period: 1667 U
[5]; monthly mean bleeding frequency treated with clotting factors, after the combined dosing period of ribavirin and interferon α-2b, patient (Nos. 1, 2, 3, 5, 8)
  Times of Bleeding Requiring Treatment, After Therapy: 0.7 and 0.0 and 1.6 and 4.1 and 2.2
[5]; monthly mean bleeding frequency treated with clotting factors, combined dosing period of ribavirin and interferon α-2b, patient (Nos. 1, 2, 3, 5, 8)
  Times of Bleeding Requiring Treatment, During Therapy: 0.2 and 0.8 and 0.7 and 3.0 and 2.6
[5]; patients Nos. 1, 2, 3 and 5, ribavirin + interferon α-2b
  bleeding tendency in the combined dosing period compared with the interferon single dosing period: significantly reduced
Coagulation factor X
  change in coagulation activity of the coagulation factor X: No significant change

## interferon α-2b
HCV; interferon α-2b alone, 6 MU per day for 2 weeks then 3 times per week for 22 weeks, patients Nos. 1, 2, 3, 5
  Elimination of HCV in interferon single dosing period: not eliminated
[6]
  reduction of the bleeding tendency by single interferon dosing: No such reduction
